The text below walks through data of ChEMBL document CHEMBL1127448, “Synthesis, ligand binding, and QSAR (CoMFA and classical) study of 3 beta-(3'-substituted phenyl)-, 3 beta-(4'-substituted phenyl)-, and 3 beta-(3',4'-disubstituted phenyl)tropane-2 beta-carboxylic acid methyl esters” (J Med Chem, 1994).

Molecules are shown by their SMILES.

The experiment deals with Sodium-dependent dopamine transporter (Rattus norvegicus, UniProt P23977). Put plainly: Concentration required to inhibit 50% of radioligand binding ([3H]WIN-35428) to the dopamine (DA) transporter in rat.
Sodium-dependent dopamine transporter, sequence (P23977 whole entry): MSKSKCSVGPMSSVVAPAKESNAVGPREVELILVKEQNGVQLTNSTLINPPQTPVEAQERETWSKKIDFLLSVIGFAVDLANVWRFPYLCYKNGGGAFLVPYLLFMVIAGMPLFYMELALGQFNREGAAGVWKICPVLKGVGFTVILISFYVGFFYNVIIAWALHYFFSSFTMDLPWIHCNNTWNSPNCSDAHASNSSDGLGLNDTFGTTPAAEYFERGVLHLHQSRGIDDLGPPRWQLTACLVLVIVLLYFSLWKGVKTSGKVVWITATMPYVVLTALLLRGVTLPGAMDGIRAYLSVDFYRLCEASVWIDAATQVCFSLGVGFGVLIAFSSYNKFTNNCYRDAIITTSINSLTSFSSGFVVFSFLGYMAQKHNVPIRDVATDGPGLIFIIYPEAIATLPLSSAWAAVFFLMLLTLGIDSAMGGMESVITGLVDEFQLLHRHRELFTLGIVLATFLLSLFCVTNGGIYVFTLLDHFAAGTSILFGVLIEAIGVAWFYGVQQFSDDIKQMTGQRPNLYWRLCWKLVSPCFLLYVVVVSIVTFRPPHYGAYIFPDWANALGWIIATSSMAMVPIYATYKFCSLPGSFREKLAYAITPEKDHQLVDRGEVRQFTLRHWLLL
As for `CCC(=O)Nc1ccc([C@H]2C[C@H]3CCC([C@H]2C(=O)OC)N3C)cc1`, the IC50 is 121 nM.
Compound `COC(=O)C1C2CC[C@H](C[C@H]1c1ccc(Br)cc1)N2C` (some centres not stated) displayed a concentration for half-maximal inhibition (IC50) of 1.69 nM. This IC50 is about 72-fold lower than that of the compound before.
Regarding `COC(=O)C1C2CC[C@@H](C[C@@H]1c1ccc([N+](=O)[O-])cc1)N2C` (some centres not stated), the IC50 worked out at 13.1 nM. This IC50 is about 7.8-fold higher than that of the compound before.
`COC(=O)C1C2CC[C@H](C[C@H]1c1ccc(Cl)c(Cl)c1)N2C` (some centres not stated): the 50% inhibitory concentration (IC50) was 0.79 nM.
In turn, `COC(=O)C1C2CC[C@H](C[C@@H]1c1cccc(I)c1)N2C` (some centres not stated) returned an IC50 of 26.1 nM.
As for `COC(=O)C1C2CC[C@H](C[C@@H]1c1cccc(Cl)c1)N2C` (some centres not stated), the 50% inhibitory concentration (IC50) was 6.27 nM.
`COC(=O)C1C2CC[C@H](C[C@@H]1c1cccc(F)c1)N2C` (some centres not stated) came in with a 50% inhibitory concentration (IC50) of 16.4 nM.
For `COC(=O)C1C2CC[C@H](C[C@@H]1c1ccc(N)c(Br)c1)N2C` (some centres not stated), the half-inhibitory concentration (IC50) turned out to be 3.91 nM. Compared with the last compound, the IC50 is about 4.2-fold lower.
Consider `COC(=O)C1C2CC[C@H](C[C@@H]1c1ccc(N)c(I)c1)N2C` (some centres not stated), for which the 50% inhibitory concentration (IC50) was 1.35 nM. Against the preceding compound, the IC50 is about 2.9-fold lower.
With `COC(=O)C1C2CC[C@H](C[C@@H]1c1ccc(O)cc1)N2C` (some centres not stated) the figure was 12.1 nM; with `COC(=O)[C@@H]1C2CC[C@H](C[C@@H]1c1ccc(N)cc1)N2C`, 9.84 nM; with `COC(=O)C1C2CC[C@H](C[C@@H]1c1ccc(F)c(C)c1)N2C` (stereo in doubt; 2x), 2.95 nM.

Usually IC50 stands for the concentration that gives 50% inhibition. The low end stands for higher potency, the high end for lower potency.
